Among the data in ChEMBL document CHEMBL1140900, “Synthesis, biological evaluation, and docking studies of N-substituted acetamidines as selective inhibitors of inducible nitric oxide synthase” (J Med Chem, 2009) are IC50 and Ratio IC50 values, retold here.

Experiment [1] concerns the target Nitric oxide synthase, inducible (Homo sapiens, UniProt P35228). Kind of experiment: Inhibition of iNOS in LPS treated human THP1 cell homogenate assessed as conversion of L-[2,3-3H]arginine to L-[2,3-3H]citrulline pre-incubated 1 hr before LPS challenge by whole cell assay. It is filed as cell-based, THP-1.
The species named for experiment [2] is Homo sapiens. The experiment can be described thus: Selectivity ratio of IC50 for human eNOS to IC50 for human iNOS.
In experiment [3] the target is T1, Nitric oxide synthase 3 (Homo sapiens, UniProt P29474).
T1 sequence (P29474 whole entry): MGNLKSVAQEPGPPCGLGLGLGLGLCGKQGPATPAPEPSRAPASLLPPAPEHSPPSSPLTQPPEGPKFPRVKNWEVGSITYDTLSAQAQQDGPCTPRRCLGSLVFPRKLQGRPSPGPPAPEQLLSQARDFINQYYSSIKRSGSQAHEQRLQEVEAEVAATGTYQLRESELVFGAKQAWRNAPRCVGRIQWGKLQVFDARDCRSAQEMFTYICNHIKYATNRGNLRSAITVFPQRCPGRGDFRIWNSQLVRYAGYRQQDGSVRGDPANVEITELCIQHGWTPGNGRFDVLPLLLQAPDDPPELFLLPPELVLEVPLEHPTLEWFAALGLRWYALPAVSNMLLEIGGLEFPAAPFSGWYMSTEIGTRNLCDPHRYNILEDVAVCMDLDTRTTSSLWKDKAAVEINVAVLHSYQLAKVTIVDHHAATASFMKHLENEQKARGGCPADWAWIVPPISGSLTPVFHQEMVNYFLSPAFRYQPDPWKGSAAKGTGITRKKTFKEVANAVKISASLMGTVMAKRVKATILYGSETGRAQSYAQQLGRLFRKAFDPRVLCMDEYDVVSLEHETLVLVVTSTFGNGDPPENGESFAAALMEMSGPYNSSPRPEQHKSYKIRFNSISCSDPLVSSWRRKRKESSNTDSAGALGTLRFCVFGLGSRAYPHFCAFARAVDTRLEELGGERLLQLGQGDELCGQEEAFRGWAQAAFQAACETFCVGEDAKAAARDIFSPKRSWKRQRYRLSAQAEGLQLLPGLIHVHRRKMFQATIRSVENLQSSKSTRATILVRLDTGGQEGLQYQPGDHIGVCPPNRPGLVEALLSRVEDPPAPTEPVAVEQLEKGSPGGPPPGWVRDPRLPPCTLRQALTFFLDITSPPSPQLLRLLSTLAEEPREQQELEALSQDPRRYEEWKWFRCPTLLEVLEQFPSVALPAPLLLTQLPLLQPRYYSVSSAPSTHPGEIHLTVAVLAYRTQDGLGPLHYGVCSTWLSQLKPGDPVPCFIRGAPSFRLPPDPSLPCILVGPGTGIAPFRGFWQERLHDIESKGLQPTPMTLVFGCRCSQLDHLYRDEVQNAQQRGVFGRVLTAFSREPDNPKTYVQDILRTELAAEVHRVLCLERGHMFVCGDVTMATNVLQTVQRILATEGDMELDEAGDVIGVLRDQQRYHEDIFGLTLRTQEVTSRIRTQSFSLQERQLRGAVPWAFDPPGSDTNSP
Kind of experiment: Inhibition of eNOS in LPS treated human THP1 cell homogenate assessed as conversion of L-[2,3-3H]arginine to L-[2,3-3H]citrulline pre-incubated 1 hr before LPS challenge by whole cell assay. It is filed as cell-based, THP-1.

Sequence of Nitric oxide synthase, inducible (P35228 whole entry): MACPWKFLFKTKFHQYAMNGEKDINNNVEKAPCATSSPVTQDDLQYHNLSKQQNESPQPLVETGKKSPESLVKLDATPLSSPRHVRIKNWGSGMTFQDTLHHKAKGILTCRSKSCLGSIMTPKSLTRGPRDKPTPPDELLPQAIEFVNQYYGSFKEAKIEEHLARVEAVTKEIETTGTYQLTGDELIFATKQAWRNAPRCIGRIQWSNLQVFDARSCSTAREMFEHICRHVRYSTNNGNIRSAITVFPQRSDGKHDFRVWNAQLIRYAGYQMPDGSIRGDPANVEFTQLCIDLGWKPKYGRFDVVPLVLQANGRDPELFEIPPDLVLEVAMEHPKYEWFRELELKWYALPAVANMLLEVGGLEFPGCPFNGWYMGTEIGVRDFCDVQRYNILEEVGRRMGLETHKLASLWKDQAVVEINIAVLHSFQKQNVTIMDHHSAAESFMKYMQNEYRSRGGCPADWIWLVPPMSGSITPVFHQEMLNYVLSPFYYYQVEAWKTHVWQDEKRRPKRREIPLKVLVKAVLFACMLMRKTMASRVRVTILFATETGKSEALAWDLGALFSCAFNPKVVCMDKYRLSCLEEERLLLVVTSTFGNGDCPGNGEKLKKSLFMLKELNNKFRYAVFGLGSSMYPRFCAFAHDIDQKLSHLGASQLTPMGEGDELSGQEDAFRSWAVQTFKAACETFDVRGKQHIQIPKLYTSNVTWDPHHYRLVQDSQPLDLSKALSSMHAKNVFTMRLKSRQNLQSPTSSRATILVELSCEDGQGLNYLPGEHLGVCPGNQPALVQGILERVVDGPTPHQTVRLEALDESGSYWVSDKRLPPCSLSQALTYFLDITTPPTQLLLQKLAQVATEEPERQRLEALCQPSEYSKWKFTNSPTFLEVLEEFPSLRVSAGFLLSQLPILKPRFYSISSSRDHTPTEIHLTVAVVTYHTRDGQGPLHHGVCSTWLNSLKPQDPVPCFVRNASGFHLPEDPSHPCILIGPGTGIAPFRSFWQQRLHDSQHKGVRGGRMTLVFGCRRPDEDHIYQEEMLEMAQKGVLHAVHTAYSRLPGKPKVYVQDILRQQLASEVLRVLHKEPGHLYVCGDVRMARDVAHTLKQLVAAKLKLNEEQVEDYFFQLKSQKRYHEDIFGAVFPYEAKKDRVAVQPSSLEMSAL

A word on the IC50: it is the concentration that gives 50% inhibition. Take `CC(=N)NCc1ccccc1`: the IC50 is 0.2 µM in experiment [1] and 350 µM in experiment [3]. The Ratio IC50 in experiment [2] turned out to be 1750.

For the molecule `CCOC(=O)N1CCC(NC(C)=N)CC1`, the IC50 in experiment [1] stood at 0.25 µM; in experiment [3] it was 90 µM. Moreover, the Ratio IC50 in experiment [2] is 360.

On to `CC(=N)NCc1cccc(CNCc2ccncc2)c1`, for which the IC50 in experiment [1] amounted to 0.35 µM; in experiment [3] it was 20 µM. The Ratio IC50 in experiment [2] worked out at 57.

In the case of `CC(=N)N[C@@H](C)c1ccccc1`, the values for the IC50 in experiment [1] and in experiment [3] were 0.45 µM and 300 µM, respectively. In experiment [2], the Ratio IC50 worked out at 666.

For the molecule `CCC(NC(C)=N)c1ccccc1` (racemic), the IC50 is 0.25 µM in experiment [1] and 80 µM in experiment [3]. Further, in experiment [2], the Ratio IC50 was determined as 320.

Regarding `CC(=N)NCc1cccc(CNS(=O)(=O)c2ccc(C)cc2)c1`, the IC50 stood at 0.5 µM in experiment [1] and 300 µM in experiment [3]. In addition, the Ratio IC50 in experiment [2] stood at 600.
